# Assay results taken from paper PMC6443933, “Antagonizing Retinoic Acid-Related-Orphan Receptor Gamma Activity Blocks the T Helper 17/Interleukin-17 Pathway Leading to Attenuated Pro-inflammatory Human Keratinocyte and Skin Responses” (Frontiers in Immunology, 2019).
# * marks the point of attachment. Biotin = O=C1N[C@H]2[C@H](CS[C@H]2CCCCC(=O)*)N1; Ahx = NCCCCCC(=O)O
# T1: human RORγt ligand binding domain (264-518), His6-tagged (human, UniProt P51449-1 264-518)
# T1 construct: also called RORγt-LBD; His6-tagged RORγt-LBD; source: produced at Novartis
# T1 sequence (looked up): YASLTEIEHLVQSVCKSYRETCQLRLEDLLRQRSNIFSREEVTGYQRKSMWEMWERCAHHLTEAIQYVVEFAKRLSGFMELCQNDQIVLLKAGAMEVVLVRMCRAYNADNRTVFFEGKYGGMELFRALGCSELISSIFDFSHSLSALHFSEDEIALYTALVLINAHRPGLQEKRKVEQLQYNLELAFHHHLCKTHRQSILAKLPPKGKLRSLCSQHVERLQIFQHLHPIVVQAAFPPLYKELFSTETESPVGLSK
# B1: biotinylated RIP140 derived co-activator peptide (peptide)
# peptide: {Biotin-Ahx}-NSHQKVTLLQLLLGHKNEEN-NH2
# SMILES: CC(C)C[C@H](NC(=O)[C@H](CC(C)C)NC(=O)[C@H](CC(C)C)NC(=O)[C@H](CCC(N)=O)NC(=O)[C@H](CC(C)C)NC(=O)[C@H](CC(C)C)NC(=O)[C@@H](NC(=O)[C@@H](NC(=O)[C@H](CCCCN)NC(=O)[C@H](CCC(N)=O)NC(=O)[C@H](Cc1c[nH]cn1)NC(=O)[C@H](CO)NC(=O)[C@H](CC(N)=O)NC(=O)CCCCCNC(=O)CCCC[C@@H]1SC[C@@H]2NC(=O)N[C@@H]21)C(C)C)[C@@H](C)O)C(=O)NCC(=O)N[C@@H](Cc1c[nH]cn1)C(=O)N[C@@H](CCCCN)C(=O)N[C@@H](CC(N)=O)C(=O)N[C@@H](CCC(=O)O)C(=O)N[C@@H](CCC(=O)O)C(=O)N[C@@H](CC(N)=O)C(N)=O
# notes: also called RIP140 peptide; source: bought: Thermo Scientific
# Legend:
# [1] = test system: STAT3 phosphorylation in Ba/F3 cells stably expressing the human IL-21 receptor; test: IL-21-induced phospho-STAT3 by flow cytometry; assay type: cell-based; conditions: 1 μM, 1 h pre-incubation
# Procedure: To assess whether Cpd A affected STAT3 activity we induced STAT3 phosphorylation in Ba/F3 cells stably expressing the human IL-21 receptor (kindly provided by Dr. Max Warncke, Novartis). Cells were pre-incubated for 1 h with 10 μM of Cpd A or with 1 μM of the pan-JAK inhibitor CP690550. To induce STAT3 activity, the cells were stimulated for 1.5 h with recombinant human IL-21 (3 nM), followed by two washing steps using buffer containing PBS/0.5% BSA. The cells were fixed with 2% paraformaldehyde for 15 min at room temperature, washed and resuspended in ice-cold 90% methanol solution and stored overnight at −20°C. The samples were washed and stained for 1 h with an Alexa 647-labeled anti-phospho (pY705)-STAT3 antibody (BD biosciences). After two washes the cells were analyzed using a LSR Fortessa (BD Bioscience) and analyzed using FlowJo software (Tree Star).
# total human CD4+ T-cells = test: Th17 polarization of total CD4+ T-cells, cytokine ELISA; assay type: cell-based; conditions: total CD4+ T-cells, Th17 polarization 72 h, ELISA; read-out: IC50, IL-17A secretion
# Procedure: Total, naive and memory CD4^+ T cells were isolated from Peripheral blood mononuclear cells (PBMCs) from healthy volunteers by density gradient centrifugation using Ficoll Paque (GE). Total, naive or memory CD4^+ T-cells were prepared by immunomagnetic separation using the respective CD4^+ T-cell enrichment kits resulting in untouched highly purified subsets (EasySep™, Stem Cell). Purity was assessed by flow cytometry and was between 95 and 98% for the total CD4^+ T-cells. The purity of naive (CD45RA^+CD45RO^−) and memory (CD45RA^−CD45RO^+) CD4^+T-cells ranged between 95 and 98%, respectively. For T-cell stimulation experiments, cells were treated as previously published ([44]). Briefly, T-cells were stimulated with plate-bound monoclonal antibodies against CD3 (1 μg/ml, clone OKT-3, BioXcell) and CD28 (1 μg/ml, clone CD28.2, BioLegend). For Th17 polarization assays, IL-6 (20 ng/ml), TGF-β1 (5 ng/ml), IL-1β (10 ng/ml), and IL-23 (10 ng/ml) were added. For Th1 polarization assays, IL-12 (10 ng/ml) and anti-IL-4 antibody (5 μg/ml), for Th2 polarizations, IL-4 (10 ng/ml) and anti-IFN-γ antibody (5 μg/ml) were added. For Th0 polarization assays, cells were only stimulated with CD3 and CD28 antibodies. Supernatants were collected after 3 or 7 days of incubation for total or naive/memory CD4^+ T-cell polarizations, respectively. Cytokine concentrations were quantified by ELISA according to the manufacturer's instructions (eBioscience or BioLegend).
# [2] = test system: HUT78 T-cells stably expressing full-length eGFP-RORγt; test: IL-17A / IL-2 production by RORγt transduced HUT78 T-cell line; assay type: cell-based, human; conditions: PMA plus anti-CD3, 48 h, ELISA
# NHEKs = test: IL-17A/TNFα spike-in in primary keratinocytes (NHEKs), qRT-PCR; assay type: cell-based, human; conditions: 0.75 μg/ml; similar to TNFα stimulation
# Procedure: The HaCaT keratinocyte cell line was purchased from AddexBio and was maintained in RPMI 1640 medium supplemented with Glutamax, Penicillin/Streptomycin (all from Gibco) and 10% FCS (PAA). Normal primary human epidermal keratinocytes (NHEKs) were purchased from Lonza and PromoCell, respectively. Cells were cultured in Keratinocyte basal growth medium (KBM; Lonza) containing KGM2 growth supplements including insulin, human epidermal growth factor, bovine pituitary extract, hydrocortisone, epinephrine, transferrin, and gentamicin/amphotericin B (Lonza). HaCaT cells were incubated in a 96-well-microtiter plate (2 × 10^4 cells/well) with Th17 cytokine-containing supernatants obtained from total CD4^+ T-cells that were polarized for 72 h in the presence of anti-CD3/CD28 antibodies and a Th17 polarization cocktail as described above. […] Cytokine concentrations in supernatants were determined from representative experiments and they contained approximately 150 pg/ml or 600 pg/ml of IL-17 in 10 μM or in 0.13 nM treated samples, respectively. […]
# Total RNA from human Th17 cells (6 × 10^5 cells), RORγt-RORE HUT78 cells (4 × 10^5 cells) and HaCaT cells (6 × 10^4 cells) was extracted using RNeasy kit including a DNAse I digestion step according to the manufacturer‘s protocol (Qiagen). […] Quantitative RT-PCR analysis was performed using a TaqManViiA7 (Applied Biosystems). […]
# HaCaT keratinocytes = test: IL-17-driven HaCaT keratinocyte responses (Th17 supernatants or spiked cytokines), qRT-PCR; assay type: cell-based, human
# Procedure: The HaCaT keratinocyte cell line was purchased from AddexBio and was maintained in RPMI 1640 medium supplemented with Glutamax, Penicillin/Streptomycin (all from Gibco) and 10% FCS (PAA). Normal primary human epidermal keratinocytes (NHEKs) were purchased from Lonza and PromoCell, respectively. Cells were cultured in Keratinocyte basal growth medium (KBM; Lonza) containing KGM2 growth supplements including insulin, human epidermal growth factor, bovine pituitary extract, hydrocortisone, epinephrine, transferrin, and gentamicin/amphotericin B (Lonza). HaCaT cells were incubated in a 96-well-microtiter plate (2 × 10^4 cells/well) with Th17 cytokine-containing supernatants obtained from total CD4^+ T-cells that were polarized for 72 h in the presence of anti-CD3/CD28 antibodies and a Th17 polarization cocktail as described above. […] Cytokine concentrations in supernatants were determined from representative experiments and they contained approximately 150 pg/ml or 600 pg/ml of IL-17 in 10 μM or in 0.13 nM treated samples, respectively. The TNF-α concentration was similar in supernatants exposed to low or high Cpd A concentrations and was 4 ng/ml. To study the impact of the IL-17 cytokine, IL-17 in the supernatants and in the spike-in cocktails was neutralized by a 0.5 h pre-incubation with an IL-17-specific antibody [0.75 μg/ml; Secukinumab (Cosentyx®, Novartis)]. All cultures were incubated in triplicates and after a 24 h incubation period, HaCaT cells (6 × 10^4 cells/sample) and NHEKs (1 × 10^5 cells/sample) were harvested and further processed for qRT-PCR analysis.
# Total RNA from human Th17 cells (6 × 10^5 cells), RORγt-RORE HUT78 cells (4 × 10^5 cells) and HaCaT cells (6 × 10^4 cells) was extracted using RNeasy kit including a DNAse I digestion step according to the manufacturer‘s protocol (Qiagen). Frozen skin biopsies (8 mm punches) were resuspended in RLT buffer (Qiagen) containing 1% β-mercaptoethanol and homogenized using a Precellys-Cryolys device (Bertin Instruments) according to the manufacturer's instructions. cDNAs were prepared with the High Capacity cDNA Reverse Transcription Kit (Applied Biosystems). Quantitative RT-PCR analysis was performed using a TaqManViiA7 (Applied Biosystems). All runs were accompanied by the internal control gene human β-glucoronidase (Gus) (431088E). The samples were run in triplicate or in hexaplicate and normalized to Gus using the ΔΔCt method to provide arbitrary units representing relative expression levels. The following Taqman probes were used for RT-PCR (Thermo Scientific): RORC (Hs01076112_m1), IL17A (Hs00936345_m1), IL22 (Hs01574154_m1), IL26 (Hs00218189_m1), IL23R (Hs00332759_m1), CCR6 (Hs00218189_m1), NFKBIZ (Hs00355476_m), DEFB4A (Hs00823638_m1), IL36G (Hs00219742_m1), and CCL20 (Hs00355476_m1).
# [3] = target: T1, human RORγt ligand binding domain …; test: FRET or BRET; TR-FRET in solution: 6 nM His6-tagged RORγt-LBD, 90 nM biotinylated RIP140 co-activator peptide, 0.45 nM Cy5-labeled streptavidin, 1.5 nM Europium-labeled anti-His6 antibody; 1 h incubation; emissions at 615 and 665 nm; displacement by the small molecules Cpd A or SR2211; conditions: both partners purified
molecule,measurement,setting,value
"C[C@@H]1CCN(C(=O)CC#N)C[C@@H]1N(C)c1ncnc2[nH]ccc12 [CP690550, reference compound]",IL-21-induced STAT3 activity (pY705-STAT3),[1],blocked
"OC(c1ccc(-c2ccc(CN3CCN(Cc4ccncc4)CC3)cc2)c(F)c1)(C(F)(F)F)C(F)(F)F [SR2211, reference compound]",IC50,total human CD4+ T-cells,1480 ± 739 nM
same,IC50,[2],257 ± 181 nM
"Secukinumab: neutralizing IL-17-selective antibody (Cosentyx, Novartis)","NFKBIZ, DEFB4A, CCL20, IL36G gene expression in NHEKs (spike-in)",NHEKs,reduced gene expression
same,IL36G expression in HaCaT after IL-17 neutralization in Th17 supernatants,HaCaT keratinocytes; 0.75 μg/ml,moderate inhibition
same,IL-17A/TNFα-mediated gene expression in HaCaT (spike-in),"HaCaT keratinocytes; 0.75 μg/ml pre-incubation of cytokines, similar to TNFα-induced levels",significantly impaired
same,IL-17 activated transcripts in HaCaT after IL-17 neutralization in Th17 supernatants,"HaCaT keratinocytes; 0.75 μg/ml, to levels seen with Th17 cytokines only",further downregulation
B1,binding result,[3],binds
